Assay results: publication PMC5994430, “Mitochondrial Delivery of Phenol Substructure Triggers Mitochondrial Depolarization and Apoptosis of Cancer Cells” (Frontiers in Pharmacology, 2018)

Tests used:
[1] = Lipophilicity, shake-flask n-octanol/PBS pH 7.4; assay type: physicochemical; conditions: n-octanol/50 mM PBS pH 7.4, shake-flask, room temperature, at least six measurements
Protocol: The partition coefficient between n-octanol and PBS at pH 7.4 (log P) was obtained by shake-flask technique at room temperature. In the shake flask experiments 50 mM PBS pH 7.4 was used as aqueous phase; the organic (n-octanol) and aqueous phase (PBS) were mutually saturated by shaking for 4 h. The compounds were solubilised in the buffered aqueous phase at a concentration of 30 μg/ml and appropriate amounts of n-octanol were added. The two phases were shaken for about 20 min, by which time the partitioning equilibrium of solutes is reached, and then centrifuged (10000 rpm, 10 min). The concentration of the solutes was measured in the aqueous phase by UV spectrophotometer (UV-2501PC, Shimadzu); the values of absorbance (223, 268 and 275 nm) were interpolated in calibration curves obtained using standard solutions of compounds (concentration range 30–0.5 μg/ml; r^2 > 0.99). Each log P-value is an average of at least six measurement.

BEAS-2B cells [2] = assay: Cell viability (neutral red); assay type: cell-based, Human; conditions: for IC50: Homo sapiens, BEAS-2B normal bronchial epithelial cells, cell viability, CompuSyn; for cell viability: BEAS-2B, 0.1, 1 or 10 μM, 72 h
Excerpt: (§1) Human colon cancer HT29 cells, colon-derived normal fibroblast CCD-18Co cells, lung cancer A549 cells, normal human bronchial epithelial (immortalized with adenovirus 12-SV40 virus hybrid Ad12SV40) BEAS-2B cells, breast cancer MDA-MB-231 cells, normal breast epithelial MCF10A cells, human osteosarcoma U-2OS cells were purchased from ATCC (Manassas, VA, United States). […] All subjects gave written informed consent in accordance with the Declaration of Helsinki. Cells were maintained in medium supplemented with 10% v/v fetal bovine serum, 1% v/v penicillin-streptomycin, 1% v/v L-glutamine. Morphological analysis was performed with a bright field microscope (Leica Microsystems, Wetzlar, Germany). At least 5 fields/experimental condition were examined.
(§2) LDH activity was measured in the extracellular medium and in the cell lysate: 50 μl of extracellular medium or 5 μl of cell lysate were incubated at 37°C with 5 mM NADH. The reaction was started by adding 20 mM pyruvic acid and was monitored for 6 min, measuring absorbance at 340 nm using a Synergy HT Multi-Detection Microplate Reader (Bio-Tek Instruments, Winoosky, MT, United States). […] Both intracellular and extracellular enzyme activities were expressed as μmol NADH oxidized/min/dish. The results were expressed as percentage of extracellular LDH versus total (intracellular plus extracellular) LDH. […] The absorbance of untreated cells was considered as 100% viability; the results were expressed as percentage of viable cells versus untreated cells. IC50 was calculated with the CompuSyn software^1.

BEAS-2B cells [3] = assay: Mitochondrial/cytosolic distribution by LC-ESI-MS; assay type: cell-based, Human; conditions: 4 h incubation with 0.1 and 1 μM
Protocol: (§3) Mitochondria were isolated as reported ([Riganti et al., 2013a]). To isolate mitochondrial fractions, 5 × 10^6 cells were washed twice in ice-cold PBS, then lysed in 0.5 ml buffer A (50 mM Tris, 100 mM KCl, 5 mM MgCl2, 1.8 mM ATP, 1 mM EDTA; pH 7.2), supplemented with protease inhibitor cocktail III (Calbiochem. La Jolla, CA, United States), 1 mM phenylmethylsulfonyl fluoride and 250 mM NaF. Samples were clarified by centrifuging at 650 × g for 3 min at 4°C. The supernatant was collected and centrifuged at 13,000 × g for 5 min at 4°C. This supernatant, containing the cytosolic fraction, was stored at -80°C until the use. The pellet containing mitochondria was washed in 0.5 ml buffer A and re-suspended in 0.25 ml buffer B (250 mM sucrose, 15 mM K2HPO4, 2 mM MgCl2, 0.5 mM EDTA, 5% w/v, BSA). A 50 μl aliquot was sonicated and used for the measurement of protein content or Western blotting; the remaining part was stored at -80°C until the use. To confirm the presence of mitochondrial proteins in the extracts and the absence of cytosolic contamination in the mitochondrial fraction, 10 μg of each sonicated sample were subjected to SDS–PAGE and probed with an anti-porin antibody (Abcam, Cambridge, United Kingdom), a mitochondrial marker, and with an anti-glyceraldehyde 3-phosphate dehydrogenase antibody (GAPDH; Santa Cruz Biotechnology Inc., Santa Cruz, CA, United States), a cytosolic marker. Mitochondrial extracts were used only if they had detectable levels of porin and undetectable levels of GAPDH. To exclude any mitochondrial contamination in the cytosolic extracts, the absence of porin and the presence of GAPDH in the latter was analyzed by Western blotting (Supplementary Figure S1). Nuclear proteins were extracted using the Nuclear Extract Kit (Active Motif, La Hulpe, Belgium). 10 μg of nuclear extracts were subjected to SDS–PAGE and probed with antibodies against: proliferator-activated receptor gamma coactivator 1-α (PGC-1α; Abcam), an index of increased mitochondrial biogenesis ([Buondonno et al., 2016]), or TATA box Binding Protein (TBP; Santa Cruz Biotechnology Inc.), as control of equal protein loading.
(§4) The amount of 1, 2, 15, and 16 in the mitochondrial and cytosolic fractions was determined by LC-ESI-MS analyses. LC-ESI-MS analyses were performed with an Acquity Ultra Performance LC^TM (Waters Corporation, Milford, MA, United States), equipped with BSM, SM, CM, and PDA detector. All the chromatographic separations were performed on a Zorbax Eclipse XDB-C18 (5 μm, 150 mm × 4.6 mm) (Agilent Technologies) as a stationary phase. The supernatant samples obtained from incubation were filtered through a 0.45 μm pore size PTFE membrane filter before use. Aliquots (5 μl) were injected onto the system and eluted with a mobile phase (flow rate, 0.5 ml/min) consisting of A, 0.1% formic acid solution, and B, acetonitrile. The following gradient was used: 0–5 min (A = 50%, B = 50%), 5–7 min (to A = 20%, B = 80%), 7–8 min (A = 20%, B = 80%), 8–10 min (to A = 50%, B = 50%). The eluate was injected into the electrospray ion source (ESI), and monitored using Micromass Quattro microTM API ESCi multi-mode ionization Enabled as detector. MS spectra were acquired and processed using MassLynx software. The operating conditions on the triple quadruple mass spectrometer were as follows: positive mode; drying gas (nitrogen) heated at 350°C at a flow rate of 800 l/h; nebulizer gas (nitrogen) at 80 l/h; capillary voltage in positive mode at 3000 V; cone voltage at 30 V. The molecular ion [M]^+ was employed for quantitative measurements of analytes. The values obtained from integration of the peak of compounds were interpolated in a calibration curve obtained using standard solutions at 0.01 to 5 μM. The amount of each compound in the mitochondrial and cytosolic fractions was expressed as pmol/mg proteins.
(§5) FIGURE 5 Intra-mitochondrial and cytosolic accumulation of TPP-derivatives. […]

A549 cells [4] = assay: Mitochondrial/cytosolic distribution by LC-ESI-MS; assay type: cell-based, Human; conditions: for intracellular hydrolysis of the ester to the parent phenol: 4 h incubation, 0.1 and 1 μM; for penetration into cells / intracellular concentration after direct incubation: A549, 4 h incubation with 0.1 and 1 μM; for mitochondrial vs cytosolic distribution after incubation with 2: 4 h incubation with 0.1 and 1 μM of 2; for cytosolic concentration of 15 after incubation with 1: cytosolic fraction
Protocol: as §3, §4, §5

A549 cells [5] = assay: Cell viability (neutral red); assay type: cell-based, Human; conditions: for IC50: cell viability, CompuSyn; for cell viability: A549, 0.1, 1 or 10 μM, 72 h
Excerpt: as §1, §2

intracellular concentration after direct incubation (BEAS-2B cells [3]) | cytosolic concentration of 15 after incubation with 1 (A549 cells [4]; 4 h incubation with 0.1 μM of 1) | mitochondrial accumulation of 15 after incubation with 1 (A549 cells [4]; 4 h incubation with 0.1 μM of 1, mitochondrial fraction) | cytosolic concentration of 15 after incubation with 1 (A549 cells [4]; 4 h incubation with 1 μM of 1) | intracellular concentration after direct incubation (A549 cells [4]) | Structure (SMILES) | logP [1] | IC50 (BEAS-2B cells [2]) [µM] | concentration in BEAS-2B cells compared with A549 cells (BEAS-2B cells [3]) | intracellular hydrolysis of the ester to the parent phenol (A549 cells [4]) | penetration into cells (A549 cells [4]) | IC50 (A549 cells [5]; A549 lung cancer cells) [µM] | IC50 (A549 cells [5]; Homo sapiens, A549, A549 lung cancer cells) [µM] | mitochondrial vs cytosolic distribution after incubation with 2 (A549 cells [4]) | cell viability (BEAS-2B cells [2]) | cell viability (A549 cells [5])
 |  |  |  |  | CC(=O)Oc1ccc(C[P+](c2ccccc2)(c2ccccc2)c2ccccc2)cc1.[Br-] [Compound 1] | 0.64 | 5.26 ± 0.25 | at least ten fold lower | fast hydrolysis into phenol 15 | penetrate in good extent |  |  |  |  | 
 |  |  |  |  | O=C(Oc1ccc(C[P+](c2ccccc2)(c2ccccc2)c2ccccc2)cc1C(F)(F)F)c1ccccc1.[Br-] [Compound 2] | 3.15 | 7.36 ± 0.45 | at least ten fold lower | more stable with respect to acetate | penetrate in good extent | 0.55 ± 0.07 | < 1 | accumulate almost exclusively at mitochondrial level |  | 
very low | below detection limit | easily detectable | very low | very low | Oc1ccc(C[P+](c2ccccc2)(c2ccccc2)c2ccccc2)cc1.[Br-] [Compound 15] | 0.5 |  |  |  |  |  |  |  | nor reduced cell viability | nor reduced cell viability
very low |  |  |  | very low | Oc1ccc(C[P+](c2ccccc2)(c2ccccc2)c2ccccc2)cc1C(F)(F)F.[Br-] [Compound 16] | 1.02 |  |  |  |  |  |  | accumulate almost exclusively at mitochondrial level | nor reduced cell viability | nor reduced cell viability
